Measurements reported in patent publication US4977151A, “Ethanone oximes and pharmaceutical compositions thereof” (Mitsubishi Kasei Corporation, priority 1987, dated 1990).
Structures can show the parent of a compound that is named as a salt.

test system: stress-induced gastric ulcer; assay: Anti-stress ulcer test: inhibition of stress-induced gastric ulcer in rats; format: in vivo, rat (Douryu male rats); settings: Rattus norvegicus, po, 15 h, read-out: Inhibition Rate of Stress-Induced Ulcer (%)
Protocol: Anti-stress ulcer tests were conducted as described below. Douryu non-fasted male rats (Shizuoka Laboratory Animal Center, body weight: 220-250 g), five in each group, were immobilized within a stress cage made of wire net and immersed in a water bath at 22 ±1° C. to a depth of xiphoid for loading them with stresses. The rats were clubbed to death after 15 hours and their stomachs were extirpated. After injecting about 15 ml of an aqueous 1% formalin solution into each of the stomachs, they were immersed in an aqueous 1 % formalin solution for about 10 minutes and fixed. After fixation, the stomachs were incised along the greater curvature. The longer diameter of each ulcer generated in the glandular portion was measured under stereomicroscope (X10) and the sum of them was defined to be an ulcer coefficient (mm). Chemicals to be tested were suspended in an aqueous 1 % gum arabic solution and orally administrated at a dose of 2 ml/kg, 30 min before the stress loading. For the control group, an aqueous 1 % gum arabic solution only was administrated, and their ulcer coefficient was compared to that of the group administrated with the tested chemicals to calculate the suppression rate of the tested chemicals. The dosage was 50 mg/kg for each of the compounds. The test compounds in the table are identified in corresponding Examples hereinafter described.

SMILES	inhibition in vivo at 200 mg/kg [%]
CN=C(NC#N)NCCSCc1nc[nH]c1C [Cimethidine, reference compound]	69.7

same assay, conditions: Rattus norvegicus; 50 mg/kg, oral, 30 min before stress loading; water immersion stress 22 ±1° C., 15 hours; vs control group; read-out: Inhibition Rate of Stress-Induced Ulcer (%)

SMILES	inhibition in vivo at 50 mg/kg [%]
CN1CCN(C/C(=N\O)c2ccc(Sc3ccccc3)cc2)CC1 [Example 1, (Z)-2-(4-methyl-piperazin-1-yl)-1-(4-phenylthio-phenyl)-ethanone oxime hydrochloride]	76.9
CN1CCN(C/C(=N\O)c2ccc(C3CCCCC3)cc2)CC1 [Example 3, (Z)-2-(4-methylpiperazin-1-yl)-1-(4-cyclohexyl-phenyl)-ethanone oxime]	59.7
CN1CCN(C/C(=N\O)c2ccc(Cc3ccccc3)cc2)CC1 [Example 5, (Z)-2-(4-methylpiperazin-1-yl)-1-(4-benzyl-phenyl)-ethanone oxime]	100
CC(=O)N(c1ccccc1)c1ccc(/C(CN2CCN(C)CC2)=N/O)cc1 [Example 6, (Z)-2-(4-methylpiperazin-1-yl)-1-(4-(N-acetyl-N-phenylamino)-phenyl)-ethanone oxime]	85.7
CN1CCN(C/C(=N\O)c2ccc(N(c3ccccc3)c3ccccc3)cc2)CC1 [Example 7, (Z)-2-(4-methylpiperazin-1-yl)-1-(4-diphenylamino-phenyl)-ethanone oxime]	74.6
CN1CCN(C/C(=N\O)c2ccc(CCc3ccccc3)cc2)CC1 [Example 8, (Z)-2-(4-methylpiperazin-1-yl)-1-(4-(2-phenylethyl)-phenyl)-ethanone oxime]	65.7
O/N=C(\CN1CCCCC1)c1ccc(CCc2ccccc2)cc1 [Example 11, (Z)-2-(piperidin-1-yl)-1-(4-(2-phenylethyl)-phenyl)-ethanone oxime]	53
CC(=O)N1c2ccccc2Sc2ccc(/C(CN3CCCCC3)=N/O)cc21 [Example 13]	100
CN1CCN(C/C(=N\O)c2ccc3c(c2)Sc2ccccc2S3)CC1 [Example 14]	51.9
CC1c2ccccc2CCc2ccc(/C(CN3CCN(C)CC3)=N/O)cc21 (centres unmarked) [Example 18, (Z)-2-(4-methylpiperazin-1-yl)-1-(10,11-dihydro-5H-5-methyldibenzo[a,b]cyclohepten-3-yl)-ethanone oxime]	100
CCC1c2ccccc2CCc2ccc(/C(CN3CCN(C)CC3)=N/O)cc21 (centres unmarked) [Example 19, (Z)-2-(4-methylpiperazin-1-yl)-1-(10,11-dihydro-5H-5-ethyldibenzo[a,b]cyclohepten-3-yl)-ethanone oxime]	90.7
CN1CCN(C/C(=N\O)c2ccc(S(=O)(=O)c3ccccc3)cc2)CC1 [Example 20, (Z)-2-(4-methylpiperazin-1-yl)-1-(4-phenylsulfonyl-phenyl)-ethanone oxime]	80.3
CN1CCN(C/C(=N\O)c2ccc3c(c2)Nc2ccccc2S3)CC1 [Example 22, (Z)-2-(4-methylpiperazin-1-yl)-1-(4-phenothiazin-2-yl)-ethanone oxime]	50.6
CN1CCN(C/C(=N\O)c2ccc(-n3ccnc3)cc2)CC1 [Example 23, (Z)-2-(4-methylpiperazin-1-yl)-1-(4-(imidazol-1-yl)phenyl)-ethanone oxime]	50.5
O/N=C(\CN1CCCCC1)c1ccc(-n2ccnc2)cc1 [Example 24, (Z)-2-(piperidin-1-yl)-1-(4-(imidazol-1-yl)-phenyl)-ethanone oxime]	41.5
CN1CCN(C/C(=N\O)c2ccc(NS(=O)(=O)c3ccccc3)cc2)CC1 [Example 31, (Z)-2-(4-methylpiperazin-1-yl)-1-(4-benzenesulfonyl-amino-phenyl)-ethanone oxime]	48.4
CN1CCN(C/C(=N\O)c2ccc(OCc3ccccc3)cc2)CC1 [Example 33, (Z)-2-(4-methyl-piperazin-1-yl)-1-(4-benzyloxy-phenyl)-ethanone oxime hydrochloride]	41.4
CCOc1cc(CCc2ccccc2)ccc1/C(CN1CCN(C)CC1)=N/O [Example 34, (Z)-2-(4-methylpiperazin-1-yl)-1-(2-ethoxy-4-(2-phenylethyl)-phenyl)-ethanone oxime hydrochloride]	100
CC(C)Oc1ccccc1CCc1ccc(/C(CN2CCN(C)CC2)=N/O)cc1 [Example 40, (Z)-2-(4-methylpiperazin-1-yl)-1-(4-(2-(2-isopropoxy-phenyl)-ethyl)-phenyl)-ethanone oxime]	41.9
